From patent US11987645B2, “Peptide for treating rheumatoid arthritis and use thereof” (SEOUL NATIONAL UNIVERSITY R&DB FOUNDATION, priority 2018, dated 2024)

Legend:
[1] = tested on: peripheral blood cells derived from rheumatoid arthritis patients; assay: Example 3-1: inflammatory cytokine secretion in peripheral blood cells derived from rheumatoid arthritis patients; type: cell-based, human; conditions: FIG. 10; for secretion level of IL-1β / secretion level of IL-6 / secretion level of TNF-α: peripheral blood cells of rheumatoid arthritis patients, control NBP
Method: After peripheral blood cells derived from rheumatoid arthritis patients were treated with apoB100 #1, apoB100 #3, and apoB100 #5, changes in the secretion of IL-1β, IL-6 and TNF-α were identified. A non-binding peptide treated group (NBP) was determined as the control group.

[2] = tested on: peripheral blood mononuclear cells obtained from rheumatoid arthritis patients; assay: Inflammatory cytokine secretion after treating peripheral blood mononuclear cells of rheumatoid arthritis patients with apoB100-derived peptides #1 to #5; type: cell-based, human; conditions: PBMC of rheumatoid arthritis patients; control non-binding peptide (NBP); FIG. 8
Method: Thereafter, peripheral blood mononuclear cells obtained from the healthy control and rheumatoid arthritis patients were treated with the peptides #1 to #5 (which are named apoB100 #1, apo100 #2, apoB100 #3, apoB100 #4, and apoB100 #5, respectively), and changes in the secretion of IL-1β, IL-6 and TNF-α were compared. Meanwhile, a non-binding peptide treated group (NBP) was determined as the control group, and the results of this example are indicated as the mean values of the secretion levels for each six of rheumatoid arthritis patients and healthy individuals.

[3] = tested on: K/B×N rheumatoid arthritis animal model; assay: Example 3-2: K/B×N rheumatoid arthritis animal model (K/B×N serum transfer arthritis mouse); type: in vivo; conditions: subcutaneous injection to the affected region; K/B×N serum and apoB induced; FIG. 11
Text: K/B×N rheumatoid arthritis animal model (K/B×N serum transfer arthritis mouse) was established by inducing moderate rheumatoid arthritis by administering K/B×N serum and apoB to the mouse, and peptides for inhibiting the secretion of inflammatory cytokine were subcutaneously injected to the affected region of the animal model. Afterwards, changes in the ankle thickness and arthritis score resulting after peptide injection were identified. In addition, under the same conditions as described above, changes in the synovial inflammation, bone erosion, cartilage damage and leukocyte infiltration were compared. Meanwhile, groups treated with K/B×N serum and apoB only were determined as control groups, and groups treated with K/B×N serum and apoB, and a non-binding peptide treated group (NBP) were determined as comparison groups.

[4] = biological target: ENO1 (α-enolase) (Homo sapiens, UniProt P06733); assay: ENO1-apoB100 binding by immunoblotting, confocal microscopy, BIACORE system and ELISA assay; conditions: ELISA, FIG. 3
[5] = tested on: peripheral blood mononuclear cells isolated from rheumatoid arthritis patients; assay: Inflammatory cytokine secretion after treating peripheral blood mononuclear cells of rheumatoid arthritis patients with apoB100; type: cell-based, human
Text: In this example, in order to identify the relation between rheumatoid arthritis and ENO1 expression on peripheral blood mononuclear cells, the ENO1 expression thereof was observed. In addition, it was attempted to identify the effect of binding ENO1 (α-enolase) to apolipoprotein B100 (apoB100) isolated from a rheumatoid arthritis patient and selected as an ENO1 (α-enolase) binding ligand on the secretion of inflammatory cytokine in the peripheral blood of the rheumatoid arthritis patient through proteomic analysis using immunoprecipitation (IP)/mass spectroscopy (MS). In detail, after ENO1 immunoblotting was performed on mononuclear cells obtained from the rheumatoid arthritis patient and peripheral blood mononuclear cells were treated with apoB100, changes in the secretion of IL-1β, IL-6 and TNF-α were compared. Meanwhile, a group in which cells isolated from healthy individuals are used (HC: healthy control) was determined as the control group.
Accordingly, in this example, it was additionally verified whether the binding of ENO1 and apoB100 crucially affected inflammation responses due to rheumatoid arthritis. […] In addition, since LDL existing in vivo in a state in which it binds to apoB100 protein may potentially involve the inflammation responses, LDLR knockout mouse and C57BL/6 wild-type mouse control group were treated with the serum of K/B×N mouse (referred to as K/B×N serum, hereinafter) and ApoB100, and resulting changes in vivo were compared. Meanwhile, addition of K/B×N mouse serum functions to induce rheumatoid arthritis through deposition of autoantibodies existing in the K/B×N serum, and is one of conventional techniques for manufacturing rheumatoid arthritis animal models by autoimmune responses.

[6] = RA patient mononuclear cells treated with apoB100, compared to healthy control group, FIG. 2

Sequence of ENO1 (α-enolase) (P06733 whole entry): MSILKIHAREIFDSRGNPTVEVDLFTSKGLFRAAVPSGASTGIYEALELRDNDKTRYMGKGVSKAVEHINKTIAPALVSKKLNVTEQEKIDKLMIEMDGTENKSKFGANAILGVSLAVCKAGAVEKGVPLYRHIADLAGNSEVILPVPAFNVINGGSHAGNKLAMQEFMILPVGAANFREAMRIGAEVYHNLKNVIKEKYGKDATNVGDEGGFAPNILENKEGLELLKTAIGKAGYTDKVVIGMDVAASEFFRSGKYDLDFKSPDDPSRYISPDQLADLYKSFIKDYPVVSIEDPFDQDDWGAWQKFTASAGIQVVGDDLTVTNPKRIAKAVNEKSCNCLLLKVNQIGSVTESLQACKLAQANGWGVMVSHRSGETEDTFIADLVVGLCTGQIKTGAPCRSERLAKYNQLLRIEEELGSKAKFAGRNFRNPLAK

## AICKEQHLFLPF (peptide #1) [apoB100 #1]
[1]
  secretion level of IL-1β: significantly decreased
  secretion level of IL-6: significantly decreased
  secretion level of TNF-α: significantly decreased
[2]
  secretion level of IL-1β: decreased
  secretion level of IL-6: decreased
  secretion level of TNF-α: decreased
[3]
  ankle thickness: significantly decreased
  arthritis score: significantly decreased

## CKEQHLFLPFSY (peptide #2) [apoB100 #2]
[2]
  secretion level of IL-1β: markedly increased
  secretion level of IL-6: markedly increased
  secretion level of TNF-α: markedly increased

## KNKYGMVAQVTQ (peptide #4) [apoB100 #4]
[2]
  secretion level of IL-1β: markedly increased
  secretion level of IL-6: markedly increased
  secretion level of TNF-α: markedly increased

## SYKNKYGMVAQV (peptide #3) [apoB100 #3]
[1]; among apoB100 #1, #3 and #5
  treatment efficacy (decrease of cytokine secretion) compared among the peptides: highest
[1]
  secretion level of IL-1β: significantly decreased
  secretion level of IL-6: significantly decreased
  secretion level of TNF-α: significantly decreased
[2]
  secretion level of IL-1β: decreased
  secretion level of IL-6: decreased
  secretion level of TNF-α: decreased
[3]
  ankle thickness: significantly decreased
  arthritis score: significantly decreased

## TKKMGLAFESTK (peptide #5) [apoB100 #5]
[1]
  secretion level of IL-1β: significantly decreased
  secretion level of IL-6: significantly decreased
  secretion level of TNF-α: significantly decreased
[2]
  secretion level of IL-1β: decreased
  secretion level of IL-6: decreased
  secretion level of TNF-α: decreased
[3]
  ankle thickness: significantly decreased
  arthritis score: significantly decreased

## apolipoprotein B100 [apoB100]
[4]
  ENO1-apoB100 binding: relatively strong binding
[5]; ENO1 expression of PBMC inhibited with ENO1 siRNA, then apoB100 treatment, FIG. 4
  secretion level of inflammatory cytokines: an increased secretion level of inflammatory cytokines was not observed
[5]; [6]
  secretion level of IL-1β: markedly increased
  secretion level of IL-6: markedly increased
  secretion level of TNF-α: markedly increased
